Data: patent publication US11230532B2, “Pyrimidines and variants thereof, and uses therefor” (Afferent Pharmaceuticals Inc., priority 2016, dated 2022)

How the values were obtained:
[1] = target: T1, human P2X2/3 receptor (heteromeric P2X2/3 channels) (Homo sapiens, UniProt P56373+Q9UBL9); assay: FlexStation calcium fluorescence assay, heteromeric P2X2/3 channels (1321N1-hP2X2/3 cells); format: cell-based; conditions: agonist 3 μM ATP, highest concentration tested 10 μM, read-out: Average pIC50 P2X2/3 (converted)
T1 construct: expressed in transfected cells; host or cells: 1321N1 human astrocytoma cells (1321N1-hP2X2/3)
T1 sequence (P56373 1-397): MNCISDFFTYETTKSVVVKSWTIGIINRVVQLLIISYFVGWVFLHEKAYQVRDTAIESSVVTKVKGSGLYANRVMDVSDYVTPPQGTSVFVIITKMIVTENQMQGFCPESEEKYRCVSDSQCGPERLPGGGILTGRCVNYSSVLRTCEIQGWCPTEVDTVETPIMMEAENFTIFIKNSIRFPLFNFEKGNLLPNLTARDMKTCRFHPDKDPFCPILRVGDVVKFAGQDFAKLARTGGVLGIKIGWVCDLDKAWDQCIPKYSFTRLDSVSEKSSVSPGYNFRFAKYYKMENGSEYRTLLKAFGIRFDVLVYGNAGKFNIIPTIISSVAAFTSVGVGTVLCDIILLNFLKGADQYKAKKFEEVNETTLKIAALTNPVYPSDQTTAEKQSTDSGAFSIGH
T1 sequence (Q9UBL9 1-471): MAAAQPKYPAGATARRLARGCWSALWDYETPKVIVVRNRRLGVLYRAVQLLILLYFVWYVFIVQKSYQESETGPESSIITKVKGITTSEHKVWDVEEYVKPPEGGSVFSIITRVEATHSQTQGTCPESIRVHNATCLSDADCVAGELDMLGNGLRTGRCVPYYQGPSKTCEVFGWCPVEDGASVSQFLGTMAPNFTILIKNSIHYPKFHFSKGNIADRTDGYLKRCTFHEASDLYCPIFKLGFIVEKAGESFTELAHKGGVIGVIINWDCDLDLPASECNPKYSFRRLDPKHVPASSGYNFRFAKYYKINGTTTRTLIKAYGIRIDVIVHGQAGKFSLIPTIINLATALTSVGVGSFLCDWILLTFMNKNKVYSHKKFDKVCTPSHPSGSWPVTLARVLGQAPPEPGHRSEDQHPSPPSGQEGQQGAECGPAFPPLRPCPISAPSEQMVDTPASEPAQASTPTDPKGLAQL
Method: (§1) 1321N1 human astrocytoma and HEK293 human embryonic kidney cells were stably transfected with human P2X2 and P2X3 receptor subunits to form heteromeric P2X2/3 channels and passaged in flasks. Additionally, HEK293 cells were stably transfected with human P2X3 receptor subunits to form homomeric P2X3 channels.
(§2) Approximately 24 hours before the FlexStation calcium fluorescence experiment, cells were released from their flasks, centrifuged and re-suspended in nutrient medium. The cells were aliquoted into black-wall, clear-bottom 96 well plates at a density of 25,000 cells per well and incubated overnight in a humidified, CO2-enriched (5%) atmosphere at 37° C.
(§3) On the day of the experiment, cells were washed with assay buffer (calcium- and magnesium-free Hank's balanced salt solution, 20 mM HEPES, 2 mM CaCl2; AB) and loaded with 4 μM Fluo-4 (P2X2/3) or Calcium 6 (Molecular Devices, according to manufacturer's instructions; P2X3) calcium-sensitive fluorescent dye in 100 μL AB.
(§4) After 1 hour of dye loading at 37° C., 1321N1-hP2X2/3 cells were washed two times with AB and test compound or vehicle added to each well in a total volume of 150 μL AB. HEK-hP2X3 cells were not washed because the Calcium 6 dye kit includes an extracellular dye that quenches unabsorbed Calcium 6 dye; test compound or vehicle were added directly to the assay plates to achieve the appropriate concentration of test compound in a total volume of 150 μL AB.
(§5) After 20 minutes incubation at RT and protected from light, the assay plates were loaded into the FlexStation microplate reader and baseline fluorescence measured with an excitation wavelength of 485 nm and emission wavelength readings centered at 525 nm (515 nm cut off).
(§6) The agonist was dispensed by the FlexStation during fluorescence measurement to construct agonist activation and antagonist inhibition curves. The final agonist concentration for inhibition was 1 μM α,β-meATP for P2X3 and 3 μM ATP for P2X2/3. Peak fluorescence was measured and curves generated using a four parameter nonlinear regression equation.

[2] = target: T2, human P2X3 receptor (homomeric P2X3 channels) (Homo sapiens, UniProt P56373); assay: FlexStation calcium fluorescence assay, homomeric P2X3 channels (HEK-hP2X3 cells); format: cell-based; conditions: for IC50: HEK293 cells stably transfected with human P2X3, agonist 1 μM α,β-meATP, highest concentration tested 10 μM, read-out: Average pIC50 P2X3 (converted); for Selectivity P2X3/P2X2/3: potency ratio P2X3 over P2X2/3 from pIC50s; for Selectivity, X = S: potency ratio P2X3 over P2X2/3
T2 construct: expressed in transfected cells; host or cells: HEK293 human embryonic kidney cells (HEK-hP2X3)
T2 sequence (P56373 1-397): T1 sequence (P56373 1-397)
Method: as §1, §2, §3, §4, §5, §6

Structure (SMILES) | IC50 [1] [µM] | IC50 [2] [µM] | Selectivity P2X3/P2X2/3 [2] | Selectivity, X = S [2]
COc1cc(C(C)C)c(Sc2cnc(N)nc2N)cc1S(C)(=O)=O [Compound 2] |  |  | >18 | 
COc1cc(C(C)C)c([S+]([O-])c2cnc(N)nc2N)cc1OC (stereo not drawn) [Comparative Compound 1, reference compound] | > 10 | > 10 |  | 
COc1cc(C(C)C)c(Sc2cnc(N)nc2N)cc1C [Compound 7] |  |  | >34 | 
COc1cc(C(C)C)c(Sc2cnc(N)nc2N)cc1I [B, X = S] |  |  |  | 48
COc1cc(Sc2cnc(N)nc2N)c(C(C)C)cc1OC [Compound 1] |  |  | >100 | greater than 100
COc1cc(C(C)C)c(S(=O)(=O)c2cnc(N)nc2N)cc1OC [Comparative Compound 2, reference compound] | > 10 | > 10 |  | 
COc1cc(Sc2cnc(N)nc2N)c(C(C)C)cc1OC [A, X = S] |  |  |  | >100
COc1cc(C(C)C)c(Sc2cnc(N)nc2N)cc1Br [Compound 8] |  |  | >47 | 
COc1cc(C(C)C)c(Sc2cnc(N)nc2N)cc1I [Compound 4] |  |  | 48 | 
CC#Cc1cc(Sc2cnc(N)nc2N)c(C(C)C)cc1OC [Compound 6] |  |  | >13 | 
COc1cc(C(C)C)c(Sc2cnc(N)nc2N)cc1C(=O)O [Compound 12] |  |  | >2 | 
COc1nc(C(C)C)c(Oc2cnc(N)nc2N)cc1C#N [Compound 17] |  |  | >10 | 
COc1nc(C(C)C)c(Oc2cnc(N)nc2N)cc1C(F)(F)F [Compound 18] |  |  | 23 | 
COc1cc(Oc2cnc(N)nc2N)c(C(C)C)nc1OC [Compound 13] |  |  | 5.2 | 
COc1ccc(Oc2cnc(N)nc2N)c(C(C)C)n1 [Compound 14] |  |  | >7.1 | 
COc1cc(C(C)C)c(Sc2cnc(N)nc2N)cc1-c1nnn[nH]1 [Compound 11] |  |  | >58 | 
COc1cc(C(C)C)c(Sc2cnc(N)nc2N)cc1S(C)(=O)=O [C, X = S] |  |  |  | >18
COc1cc(C(C)C)c(Sc2cnc(N)nc2N)cc1S(N)(=O)=O [Compound 3] |  |  | >67 | 
COc1cc(C(C)C)c(Sc2cnc(N)nc2N)cc1Cl [Compound 9] |  |  | >56 | 
C#Cc1cc(Sc2cnc(N)nc2N)c(C(C)C)cc1OC [Compound 5] |  |  | 97 | 
COc1nc(C(C)C)c(Oc2cnc(N)nc2N)cc1S(C)(=O)=O [Compound 16] |  |  | >145 | 

More lines, now with the values ahead:

IC50 [1] [µM] | IC50 [2] [µM] | Selectivity P2X3/P2X2/3 [2] | Selectivity, X = S [2] | Structure (SMILES)
0.398 | 0.1 | 4 |  | COc1nc(C(C)C)c(Sc2cnc(N)nc2N)cc1Br [Compound 24]
> 10 | 3.98 | >3 |  | COc1ccc(Sc2cnc(N)nc2N)c(C(C)C)n1 [Compound 23]
5.01 | 0.0251 | 208 |  | COc1cc(C(C)C)c(Nc2cnc(N)nc2N)cc1Cl [Compound 39]
> 10 | 0.0251 | >370 |  | COc1nc(C(C)C)c(Nc2cnc(N)nc2N)cc1S(C)(=O)=O [Compound 36]
6.31 | 0.794 | 7.2 |  | CC#Cc1cc(Sc2cnc(N)nc2N)c(C(C)C)nc1OC [Compound 28]
7.94 | 0.0398 | 198 |  | COc1nc(C(C)C)c(Nc2cnc(N)nc2N)cc1C(F)(F)F [Compound 35]
 |  | 19 |  | COc1nc(C(C)C)c(Oc2cnc(N)nc2N)cc1S(N)(=O)=O [Compound 20]
0.501 | 0.0126 | 41 |  | COc1nc(C(C)C)c(Oc2cnc(N)nc2N)cc1SC [Compound 41]
0.794 | 0.0251 | 26 |  | COc1nc(C(C)C)c(Oc2cnc(N)nc2N)cc1Cl [Compound 33]
> 10 | 7.94 | >1 |  | COc1nc(C(C)C)c(Sc2cnc(N)nc2N)cc1C#N [Compound 26]
> 10 | 3.98 | >3 |  | CCc1cc(OC)c(S(C)(=O)=O)cc1Sc1cnc(N)nc1N [Compound 22]
1 | 0.1 | 10 |  | COc1nc(C(C)C)c(Oc2cnc(N)nc2N)nc1C(F)(F)F [Compound 46]
6.31 | 0.794 | 8.3 |  | COc1nc(C(C)C)c(Sc2cnc(N)nc2N)cc1C(F)(F)F [Compound 34]
> 10 | 3.16 | >3.4 |  | COc1nc(C(C)C)c(Oc2cnc(N)nc2N)cc1S(C)(=N)=O (stereo not drawn) [Compound 43]
2 | 0.01 | 225 |  | COc1cc(Nc2cnc(N)nc2N)c(C(C)C)nc1OC [Compound 44]
> 10 | 1.58 | >6.0 |  | COc1nc(C(C)C)c(Oc2cnc(N)nc2N)nc1N(C)C [Compound 45]
> 10 | 0.398 | >24 |  | CCc1cc(OC)c(I)cc1Sc1cnc(N)nc1N [Compound 21]
0.2 | 0.0501 | 3.9 |  | C#Cc1cc(Sc2cnc(N)nc2N)c(C(C)C)nc1OC [Compound 29]
0.398 | 0.01 | 34 |  | COc1nc(C(C)C)c(Nc2cnc(N)nc2N)cc1Cl [Compound 32]
> 10 | 0.2 | >52 |  | COc1nc(C(C)C)c(Sc2cnc(N)nc2N)cc1S(C)(=O)=O [Compound 25]
> 10 | 0.316 | >33 |  | COc1nc(C(C)C)c(Oc2cnc(N)nc2N)cc1[S+](C)[O-] (stereo not drawn) [Compound 42]
 |  | 28 |  | C#Cc1cc(Oc2cnc(N)nc2N)c(C(C)C)nc1OC [Compound 19]
> 10 | 0.126 | >73 |  | COc1cc(C(C)C)c(Nc2cnc(N)nc2N)cc1S(C)(=O)=O [Compound 37]
> 10 | 0.2 | >48 |  | COc1nc(C(C)C)c(Sc2cnc(N)nc2N)cc1Cl [Compound 38]
> 10 | 3.98 | >2.5 |  | COc1nc(C(C)C)c(Sc2cnc(N)nc2N)cc1SC(F)(F)F [Compound 31]
1.58 | 0.0631 | 28 |  | COc1cc(Nc2cnc(N)nc2N)c(C(C)C)cc1OC [Compound 30]
 |  |  | >50 | COc1cc(C(C)C)c(Sc2cnc(N)nc2N)cc1Cl [D, X = S]
> 10 | 0.0794 | >123 |  | COc1cc(C(C)C)c(Nc2cnc(N)nc2N)cc1C(F)(F)F [Compound 40]
1.26 | 0.631 | 2.1 |  | COc1nc(C(C)C)c(Oc2cnc(N)nc2N)cc1SC(F)(F)F [Compound 47]
0.631 | 0.0794 | 7.3 |  | COc1nc(C(C)C)c(Sc2cnc(N)nc2N)cc1S(N)(=O)=O [Compound 27]
